What follows are compounds tested against T1, soluble guanylate cyclase (Homo sapiens, UniProt Q02153) (assay: CHO cellular assay (cGMP production, Cisbio cGMP HTRF)). Conditions: CHO K1 cells overexpressing human GUCYA3/GUCYB3 (clone 8E10), 1 mM IBMX, 20 uM ODQ, 1 h room temperature, listed 0.5 nM means actual EC50 ≤0.5 nM (quantification limit).
T1 construct: expressed in transfected cells
Type: cell-based
Excerpt: Chinese hamster ovary (CHO) cells overexpressing soluble guanylate cyclase were generated to test the effect of sGC activators in a cellular context. Human cDNAs for GUCYA3 (RefSeq: NM_000856.3) and GUCYB3 (RefSeq: NM_000857.1) were amplified by PCR from a HUVEC (Human Umbilical Vein Endothelial Cells) cDNA library and cloned into mammalian expression vectors. CHO K1 cells (ATCC CCL-61) were transfected using Lipofectamine 2000 following manufacturer's instructions and stably expressing clones were identified by antibiotic selection. CHO GUCY clone 8E10 was used for subsequent experiments.
Cells were seeded at a density of 3000 cells/well in white 384-well proxyplates (Perkin Elmer) and incubated overnight, then the medium was removed and cells were washed with assay buffer (HBSS, 0.1% BSA, 1 mM IBMX, 20 uM ODQ). sGC activators were serially diluted in DMSO, then diluted in assay buffer prior to adding to cells (10 ul/well, final DMSO concentration 0.5%). Cells were incubated with compounds for 1 h room temperature, then assayed for cGMP production using Cisbio cGMP HTRF kit (62GM2PEC) according to manufacturer's instructions.
The EC50s are calculated based on the amount of cGMP interpolated from the standard curve, using a 4-parameter sigmoidal dose-response.
Compounds of invention are active on sGC activation. Data on Table 1 collected using the assay of Biological Example 1. The minimum EC50 quantification limit of the assay is 0.5 nM, therefore any compound listed as having an EC50 value of 0.5 nM has a actual EC50 of ≤0.5 nM.

T1 sequence (Q02108 whole entry partner): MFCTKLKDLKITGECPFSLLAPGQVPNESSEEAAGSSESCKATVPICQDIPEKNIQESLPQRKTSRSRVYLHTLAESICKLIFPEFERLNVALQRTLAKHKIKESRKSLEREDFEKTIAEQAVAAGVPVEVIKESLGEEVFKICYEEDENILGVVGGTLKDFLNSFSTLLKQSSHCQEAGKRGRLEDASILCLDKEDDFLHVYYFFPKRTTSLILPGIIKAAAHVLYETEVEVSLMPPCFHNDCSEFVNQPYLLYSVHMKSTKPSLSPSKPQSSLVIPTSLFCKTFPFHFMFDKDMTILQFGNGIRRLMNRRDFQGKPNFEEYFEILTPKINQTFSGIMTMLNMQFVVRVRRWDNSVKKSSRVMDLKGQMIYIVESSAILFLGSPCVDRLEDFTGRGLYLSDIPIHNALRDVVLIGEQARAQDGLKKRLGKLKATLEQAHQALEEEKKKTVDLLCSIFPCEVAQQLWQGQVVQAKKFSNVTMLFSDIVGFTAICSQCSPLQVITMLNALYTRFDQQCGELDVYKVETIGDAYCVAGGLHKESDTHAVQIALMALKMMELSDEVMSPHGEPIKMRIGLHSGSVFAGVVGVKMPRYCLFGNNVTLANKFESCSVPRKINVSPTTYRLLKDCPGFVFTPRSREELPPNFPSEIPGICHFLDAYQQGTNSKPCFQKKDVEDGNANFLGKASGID
T1 sequence (Q02153 whole entry): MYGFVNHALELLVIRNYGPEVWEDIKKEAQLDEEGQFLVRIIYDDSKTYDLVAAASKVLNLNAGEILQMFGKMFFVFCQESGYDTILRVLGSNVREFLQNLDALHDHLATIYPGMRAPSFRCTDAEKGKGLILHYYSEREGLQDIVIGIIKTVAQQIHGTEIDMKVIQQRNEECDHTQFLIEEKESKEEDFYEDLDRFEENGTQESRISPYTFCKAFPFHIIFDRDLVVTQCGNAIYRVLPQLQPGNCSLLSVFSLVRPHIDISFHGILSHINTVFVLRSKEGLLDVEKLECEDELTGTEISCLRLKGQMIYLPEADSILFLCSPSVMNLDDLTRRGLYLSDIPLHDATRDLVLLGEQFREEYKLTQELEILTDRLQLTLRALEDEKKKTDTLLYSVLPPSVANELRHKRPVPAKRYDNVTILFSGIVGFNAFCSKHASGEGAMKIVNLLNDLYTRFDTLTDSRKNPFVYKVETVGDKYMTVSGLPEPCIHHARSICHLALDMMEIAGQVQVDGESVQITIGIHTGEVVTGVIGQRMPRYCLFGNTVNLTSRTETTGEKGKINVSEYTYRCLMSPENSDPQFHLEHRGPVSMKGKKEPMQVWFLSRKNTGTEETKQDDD

| EC50 | Structure (SMILES) |
| --- | --- |
| ≤ 0.5 nM | Cc1cc(C2CCN(C(=O)C3CC3)CC2)ccc1OCC1=C(c2cccc(-n3ncc(C(=O)O)c3C(F)(F)F)n2)CCCC1 [Example 1, 1-(6-(2-((4-(1-(Cyclopropanecarbonyl)piperidin-4-yl)-2-methylphenoxy)methyl)cyclohex-1-en-1-yl)pyridin-2-yl)-5-(trifluoromethyl)-1H-pyrazole-4-carboxylic acid] |
| ≤ 0.5 nM | CCC(=O)N1CCC(c2ccc(OCC3=C(c4cccc(-n5ncc(C(=O)O)c5C(F)(F)F)n4)CCCC3)c(C)c2)CC1 [Example 2-1, 1-(6-(2-((2-methyl-4-(1-propionylpiperidin-4-yl)phenoxy)methyl)cyclohex-1-en-1-yl)pyridin-2-yl)-5-(trifluoromethyl)-1H-pyrazole-4-carboxylic acid] |
| 1 nM | COC(=O)N1CCC(c2ccc(OCC3=C(c4cccc(-n5ncc(C(=O)O)c5C(F)(F)F)n4)CCCC3)c(C)c2)CC1 [Example 2-2, 1-(6-(2-((4-(1-(methoxycarbonyl)piperidin-4-yl)-2-methylphenoxy)methyl)cyclohex-1-en-1-yl)pyridin-2-yl)-5-(trifluoromethyl)-1H-pyrazole-4-carboxylic acid] |
| 1 nM | Cc1cc(C2CCN(S(C)(=O)=O)CC2)ccc1OCC1=C(c2cccc(-n3ncc(C(=O)O)c3C(F)(F)F)n2)CCCC1 [Example 2-3, 1-(6-(2-((2-methyl-4-(1-(methylsulfonyl)piperidin-4-yl)phenoxy)methyl)cyclohex-1-en-1-yl)pyridin-2-yl)-5-(trifluoromethyl)-1H-pyrazole-4-carboxylic acid] |
| 1 nM | Cc1cc(C2CCN(C(=O)N(C)C)CC2)ccc1OCC1=C(c2cccc(-n3ncc(C(=O)O)c3C(F)(F)F)n2)CCCC1 [Example 2-4, 1-(6-(2-((4-(1-(dimethylcarbamoyl)piperidin-4-yl)-2-methylphenoxy)methyl)cyclohex-1-en-1-yl)pyridin-2-yl)-5-(trifluoromethyl)-1H-pyrazole-4-carboxylic acid] |
| 2.4 nM | Cc1cc(C2CCN(C(=O)CO)CC2)ccc1OCC1=C(c2cccc(-n3ncc(C(=O)O)c3C(F)(F)F)n2)CCCC1 [Example 2-5, 1-(6-(2-((4-(1-(2-hydroxyacetyl)piperidin-4-yl)-2-methylphenoxy)methyl)cyclohex-1-en-1-yl)pyridin-2-yl)-5-(trifluoromethyl)-1H-pyrazole-4-carboxylic acid] |
| 6.3 nM | O=C(O)c1cnn(-c2cccc(C3=C(COc4ccc(C5CCN(C(=O)C6CC6)CC5)cc4)CCCC3)n2)c1C(F)(F)F [Example 2-6, 1-(6-(2-((4-(1-(cyclopropanecarbonyl)piperidin-4-yl)phenoxy)methyl)cyclohex-1-en-1-yl)pyridin-2-yl)-5-(trifluoromethyl)-1H-pyrazole-4-carboxylic acid] |
| 2 nM | CCN(CC)C(=O)N1CCC(c2ccc(OCC3=C(c4cccc(-n5ncc(C(=O)O)c5C(F)(F)F)n4)CCCC3)c(C)c2)CC1 [Example 2-7, 1-(6-(2-((4-(1-(diethylcarbamoyl)piperidin-4-yl)-2-methylphenoxy)methyl)cyclohex-1-en-1-yl)pyridin-2-yl)-5-(trifluoromethyl)-1H-pyrazole-4-carboxylic acid] |
| ≤ 0.5 nM | CCS(=O)(=O)N1CCC(c2ccc(OCC3=C(c4cccc(-n5ncc(C(=O)O)c5C(F)(F)F)n4)CCCC3)c(C)c2)CC1 [Example 2-8, 1-(6-(2-((4-(1-(ethylsulfonyl)piperidin-4-yl)-2-methylphenoxy)methyl)cyclohex-1-en-1-yl)pyridin-2-yl)-5-(trifluoromethyl)-1H-pyrazole-4-carboxylic acid] |
| 1 nM | Cc1cc(C2CCN(S(=O)(=O)C3CC3)CC2)ccc1OCC1=C(c2cccc(-n3ncc(C(=O)O)c3C(F)(F)F)n2)CCCC1 [Example 2-9, 1-(6-(2-((4-(1-(cyclopropylsulfonyl)piperidin-4-yl)-2-methylphenoxy)methyl)cyclohex-1-en-1-yl)pyridin-2-yl)-5-(trifluoromethyl)-1H-pyrazole-4-carboxylic acid] |
| ≤ 0.5 nM | Cc1cc(C2CCN(C(=O)C(C)C)CC2)ccc1OCC1=C(c2cccc(-n3ncc(C(=O)O)c3C(F)(F)F)n2)CCCC1 [Example 2-10, 1-(6-(2-((4-(1-isobutyrylpiperidin-4-yl)-2-methylphenoxy)methyl)cyclohex-1-en-1-yl)pyridin-2-yl)-5-(trifluoromethyl)-1H-pyrazole-4-carboxylic acid] |
| 1 nM | Cc1cc(C2CCN(C(=O)C3CCC3)CC2)ccc1OCC1=C(c2cccc(-n3ncc(C(=O)O)c3C(F)(F)F)n2)CCCC1 [Example 2-11, 1-(6-(2-((4-(1-(cyclobutanecarbonyl)piperidin-4-yl)-2-methylphenoxy)methyl)cyclohex-1-en-1-yl)pyridin-2-yl)-5-(trifluoromethyl)-1H-pyrazole-4-carboxylic acid] |
| 14 nM | CCNC(=O)N1CCC(c2ccc(OCC3=C(c4cccc(-n5ncc(C(=O)O)c5C(F)(F)F)n4)CCCC3)c(C)c2)CC1 [Example 2-12, 1-(6-(2-((4-(1-(ethylcarbamoyl)piperidin-4-yl)-2-methylphenoxy)methyl)cyclohex-1-en-1-yl)pyridin-2-yl)-5-(trifluoromethyl)-1H-pyrazole-4-carboxylic acid] |
| ≤ 0.5 nM | Cc1cc(C2CCN(C(=O)[C@H](C)O)CC2)ccc1OCC1=C(c2cccc(-n3ncc(C(=O)O)c3C(F)(F)F)n2)CCCC1 [Example 3, (S)-1-(6-(2-((4-(1-(2-hydroxypropanoyl)piperidin-4-yl)-2-methylphenoxy)methyl)cyclohex-1-en-1-yl)pyridin-2-yl)-5-(trifluoromethyl)-1H-pyrazole-4-carboxylic acid] |
| 164 nM | Cc1cc(C2CCN(C(=O)[C@@H](C)O)CC2)ccc1OCC1=C(c2cccc(-n3ncc(C(=O)O)c3C(F)(F)F)n2)CCCC1 [Example 4-1, (R)-1-(6-(2-((4-(1-(2-hydroxypropanoyl)piperidin-4-yl)-2-methylphenoxy)methyl)cyclohex-1-en-1-yl)pyridin-2-yl)-5-(trifluoromethyl)-1H-pyrazole-4-carboxylic acid] |
| 8.4 nM | Cc1cc(C2CCN(C(=O)c3ccccn3)CC2)ccc1OCC1=C(c2cccc(-n3ncc(C(=O)O)c3C(F)(F)F)n2)CCCC1 [Example 4-2, 1-(6-(2-((2-methyl-4-(1-picolinoylpiperidin-4-yl)phenoxy)methyl)cyclohex-1-en-1-yl)pyridin-2-yl)-5-(trifluoromethyl)-1H-pyrazole-4-carboxylic acid] |
| 10 nM | Cc1cccc(CN2CCc3cc(OCC4=C(c5cccc(-n6ncc(C(=O)O)c6C(F)(F)F)n5)CCCC4)ccc3C2)n1 [Example 5, 1-(6-(2-(((2-((6-Methylpyridin-2-yl)methyl)-1,2,3,4-tetrahydroisoquinolin-6-yl)oxy)methyl)cyclohex-1-en-1-yl)pyridin-2-yl)-5-(trifluoromethyl)-1H-pyrazole-4-carboxylic acid] |
| 2.8 nM | Cc1cc(C2CCN(CC(F)(F)F)CC2)ccc1OCC1=C(c2cccc(-n3ncc(C(=O)O)c3C(F)(F)F)n2)CCCC1 [Example 6-1, 1-(6-(2-((2-methyl-4-(1-(2,2,2-trifluoroethyl)piperidin-4-yl)phenoxy)methyl)cyclohex-1-en-1-yl)pyridin-2-yl)-5-(trifluoromethyl)-1H-pyrazole-4-carboxylic acid] |
| 16 nM | O=C(O)c1cnn(-c2cccc(C3=C(COc4ccc5c(c4)CCN(Cc4ccc6ccccc6n4)C5)CCCC3)n2)c1C(F)(F)F [Example 6-2, 1-(6-(2-(((2-(quinolin-2-ylmethyl)-1,2,3,4-tetrahydroisoquinolin-6-yl)oxy)methyl)cyclohex-1-en-1-yl)pyridin-2-yl)-5-(trifluoromethyl)-1H-pyrazole-4-carboxylic acid] |
| 374 nM | Cc1cc(C2CCN(CC3CC3)CC2)ccc1OCC1=C(c2cccc(-n3ncc(C(=O)O)c3C(F)(F)F)n2)CCCC1 [Example 6-3, 1-(6-(2-((4-(1-(Cyclopropylmethyl)piperidin-4-yl)-2-methylphenoxy)methyl)cyclohex-1-en-1-yl)pyridin-2-yl)-5-(trifluoromethyl)-1H-pyrazole-4-carboxylic acid] |
| 1 nM | CCc1cc(OCC2=C(c3cccc(-n4ncc(C(=O)O)c4C(F)(F)F)n3)CCCC2)ccc1C1CCN(C(=O)C2CC2)CC1 [Example 7, 1-(6-(2-((4-(1-(Cyclopropanecarbonyl)piperidin-4-yl)-3-ethylphenoxy)methyl)cyclohex-1-en-1-yl)pyridin-2-yl)-5-(trifluoromethyl)-1H-pyrazole-4-carboxylic acid] |

| Structure (SMILES) | EC50 |
| --- | --- |
| Cc1cc(C2CCN(C(=O)OC(C)(C)C)CC2)ccc1OCC1=C(c2cccc(-n3ncc(C(=O)O)c3C(F)(F)F)n2)CCCC1 [Example 2-13, 1-(6-(2-((4-(1-(tert-butoxycarbonyl)piperidin-4-yl)-2-methylphenoxy)methyl)cyclohex-1-en-1-yl)pyridin-2-yl)-5-(trifluoromethyl)-1H-pyrazole-4-carboxylic acid] | 110 nM |
